Two compounds from BindingDB's records for doi:10.7270/Q2RF5SF5 (Burnham Center For Chemical Genomics, 2008) can be followed below.

Where only a bound is given, the exact number is not on record here.

The assay deals with Heat shock 70 kDa protein 1A (Homo sapiens, UniProt V9GZ37). Description: small-molecule inhibition of Hsp70 – biochemical, TR-FRET (AID 786). Background: TR-FRET usually uses a lanthanide donor and a delayed reading to cut background.
Sequence of Heat shock 70 kDa protein 1A (V9GZ37 whole entry): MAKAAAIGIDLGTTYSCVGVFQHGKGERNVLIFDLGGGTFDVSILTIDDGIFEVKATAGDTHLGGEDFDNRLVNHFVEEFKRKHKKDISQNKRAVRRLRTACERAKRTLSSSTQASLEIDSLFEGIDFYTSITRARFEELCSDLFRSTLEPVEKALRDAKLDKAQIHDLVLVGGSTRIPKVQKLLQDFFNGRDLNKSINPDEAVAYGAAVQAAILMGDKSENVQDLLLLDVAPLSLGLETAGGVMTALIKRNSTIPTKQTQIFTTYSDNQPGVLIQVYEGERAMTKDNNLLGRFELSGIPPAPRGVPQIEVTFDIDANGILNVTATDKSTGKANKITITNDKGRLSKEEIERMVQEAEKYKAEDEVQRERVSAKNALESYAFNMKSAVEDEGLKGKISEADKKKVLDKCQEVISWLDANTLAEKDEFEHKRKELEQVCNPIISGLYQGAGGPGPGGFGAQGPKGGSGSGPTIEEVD

For `CC(=O)N1CCC2(CC1)c1c(n[nH]c1C)OC(=N)C2C#N` (configuration not stated) [6-azanyl-1'-ethanoyl-3-methyl-spiro[2H-pyrano[2,3-c]pyrazole-4,4'-piperidine]-5-carbonitrile], the IC50 (as a rule, the concentration at which inhibition is half-maximal) was greater than 100 µM.

With `C=c1[nH]n(-c2cccc(C(=O)O)c2)c(=O)c1=CC=Cc1ccco1` [SMR000113614], the half-maximal inhibitory concentration (IC50) came to 17.4 µM.
